In patent publication US12059422B2 (MEI Pharma, Inc., priority 2011, dated 2024):
pIC50: −log10 of the molar value.

Experiments:
PI3K delta = target: T1, PI3K delta (Homo sapiens, UniProt O00329); test: Luciferase-based luminescence assay (KinaseGlo), PI3K delta enzymatic activity; type: biochemical; conditions: for pIC50: inhibition of enzymatic activity, KinaseGlo, 25 μM ATP, read-out: IC50 p110δ; for α/δ ratio: ratio of enzymatic IC50 against PI3Kα over IC50 against PI3Kδ; for β/δ ratio / γ/δ ratio: ratio of enzymatic IC50 values, Table 1
T1 construct: purchased Millipore, Billerica, MA, USA
T1 sequence (O00329 whole entry, species assumed): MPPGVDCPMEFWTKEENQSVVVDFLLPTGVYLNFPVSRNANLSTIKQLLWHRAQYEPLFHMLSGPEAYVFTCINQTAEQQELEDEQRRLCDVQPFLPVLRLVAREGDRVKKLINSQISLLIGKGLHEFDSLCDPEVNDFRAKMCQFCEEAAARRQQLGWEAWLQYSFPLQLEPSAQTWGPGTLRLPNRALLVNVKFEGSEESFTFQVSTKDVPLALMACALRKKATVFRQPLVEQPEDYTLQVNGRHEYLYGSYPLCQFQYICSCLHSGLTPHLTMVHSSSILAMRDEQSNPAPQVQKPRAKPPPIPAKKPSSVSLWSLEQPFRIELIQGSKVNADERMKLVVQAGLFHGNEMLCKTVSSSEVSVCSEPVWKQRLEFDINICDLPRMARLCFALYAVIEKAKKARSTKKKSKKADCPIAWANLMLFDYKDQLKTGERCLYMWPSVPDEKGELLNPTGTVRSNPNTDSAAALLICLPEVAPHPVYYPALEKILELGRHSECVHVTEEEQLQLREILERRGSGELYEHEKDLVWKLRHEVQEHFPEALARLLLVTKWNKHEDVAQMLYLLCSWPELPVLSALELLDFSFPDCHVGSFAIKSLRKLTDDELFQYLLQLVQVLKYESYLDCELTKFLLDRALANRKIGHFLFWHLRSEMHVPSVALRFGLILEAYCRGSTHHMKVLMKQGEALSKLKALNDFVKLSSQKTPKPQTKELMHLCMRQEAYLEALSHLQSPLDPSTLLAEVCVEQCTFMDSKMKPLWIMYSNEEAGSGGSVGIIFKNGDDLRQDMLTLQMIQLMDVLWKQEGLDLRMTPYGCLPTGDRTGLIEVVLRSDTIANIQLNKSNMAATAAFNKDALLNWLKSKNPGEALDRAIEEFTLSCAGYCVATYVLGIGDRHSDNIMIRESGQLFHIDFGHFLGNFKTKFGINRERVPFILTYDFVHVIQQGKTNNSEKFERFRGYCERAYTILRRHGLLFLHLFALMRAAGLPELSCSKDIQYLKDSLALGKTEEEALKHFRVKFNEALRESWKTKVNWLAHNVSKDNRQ
T1 sequence (P27986 whole entry partner, species assumed): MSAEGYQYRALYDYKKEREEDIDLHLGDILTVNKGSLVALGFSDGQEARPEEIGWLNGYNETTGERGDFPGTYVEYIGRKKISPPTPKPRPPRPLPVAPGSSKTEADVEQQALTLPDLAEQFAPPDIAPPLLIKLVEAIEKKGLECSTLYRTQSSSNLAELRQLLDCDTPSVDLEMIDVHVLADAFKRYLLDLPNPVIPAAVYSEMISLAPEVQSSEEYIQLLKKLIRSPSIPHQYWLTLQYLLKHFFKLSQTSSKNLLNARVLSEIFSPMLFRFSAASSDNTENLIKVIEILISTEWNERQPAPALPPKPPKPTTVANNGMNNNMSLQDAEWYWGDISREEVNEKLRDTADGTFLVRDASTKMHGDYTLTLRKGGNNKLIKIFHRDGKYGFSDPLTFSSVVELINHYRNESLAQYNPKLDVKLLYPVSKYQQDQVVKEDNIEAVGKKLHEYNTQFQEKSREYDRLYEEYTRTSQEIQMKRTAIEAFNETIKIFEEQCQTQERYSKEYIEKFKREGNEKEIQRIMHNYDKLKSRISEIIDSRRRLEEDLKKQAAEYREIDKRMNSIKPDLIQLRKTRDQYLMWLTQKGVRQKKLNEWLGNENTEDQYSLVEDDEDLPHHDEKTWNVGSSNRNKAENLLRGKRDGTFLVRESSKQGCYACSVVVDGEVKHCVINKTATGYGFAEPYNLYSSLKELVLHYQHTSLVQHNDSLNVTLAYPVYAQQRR
Description: PI3K catalyzes the conversion of phosphatidylinositol-4,5-bisphosphate (PIP2) and ATP to phosphatidylinositol-3,4,5-trisphosphate (PIP3) and ADP. For all assays, the reaction buffer comprised 50 mM HEPES, pH 7.5, 3 mM MgCl2, 1 mM EGTA, 100 mM NaCl, 0.03% CHAPS and 2 mM DTT. Compounds for testing were dissolved and serially diluted in 100% DMSO (total of 10 concentrations), then diluted 1:25 in reaction buffer.
PI3K alpha and PI3K delta enzymatic activity was determined by measuring the amount of ATP consumed following the kinase reaction using a luciferase-based luminescence assay (KinaseGlo®, Promega Corp., Madison, WI, USA). PI3K enzyme solutions were prepared by diluting PI3K alpha (Invitrogen Corp., Carlsbad, CA, USA) or PI3K delta (Millipore, Billerica, MA, USA) in reaction buffer, to 4× the final assay concentration (final concentrations of enzymes were 1.65 nM and 6.86 nM for PI3K alpha and PI3K delta, respectively). A substrate solution was prepared by mixing PIP2 and ATP in reaction buffer at 2× the final assay concentration (final concentrations were 50 μM and 25 μM for PIP2 and ATP respectively). 2.5 μL each of the compound and kinase mixtures were added to individual wells of white low volume 384-well assay plates and mixed by shaking. The reactions were started by adding 5 μL of substrate mixture per well and shaking. The assay plates were covered and reactions were allowed to proceed for 1 hour (PI3K alpha) or 2 hours (PI3K delta), after which 10 μL of Kinase Glo® reagent was added. The plates were briefly centrifuged and incubated for 10 minutes, after which luminescence was measured using a FlexStation plate reader (Molecular Devices, Sunnyvale, CA, USA). IC50 values were determined by curve fitting using Graphpad Prism software (Graphpad Software, La Jolla, CA, USA).

mTOR = mTOR (Homo sapiens, UniProt P42345); test: mTOR inhibition (Table 1); type: biochemical; conditions: Table 1, no method described
PI3Kδ = target: T2, PI3Kδ (Homo sapiens, UniProt O00329); test: ELISA assay for PI3Kδ: sandwich ELISA, phosphorylation of AKT (Thr308) in Raji cells; type: cell-based; conditions: for pIC50: cellular, pAKT (Thr308), Raji cells, anti-Human IgM stimulation, read-out: IC50 p110δ; for α/δ ratio / β/δ ratio / γ/δ ratio: ratio of cellular IC50 values, Table 2
T2 construct: endogenous in cells; host or cells: Raji (ATCC #CCL-86)
T2 sequence (O00329 whole entry): as the sequence (O00329 whole entry, species assumed) above
T2 sequence (P27986 whole entry partner): as the sequence (P27986 whole entry partner, species assumed) above
Description: Cellular PI3Kδ activity was determined by measuring the phosphorylation of AKT (Thr308) using a sandwich enzyme-linked immunosorbant assay (ELISA). Raji (Burkitt's Lymphoma) cells were obtained from ATCC (ATCC #CCL-86). Phosphate buffer saline (PBS) contained 2.7 M NaCl, 54 mM KCl, 86 mM […] (dibasic, anhydrous), and 28 mM […] (monobasic, anhydrous) at pH 7.2. Wash buffer contained PBS supplemented with 0.05% Tween-20. Blocking buffer contained wash buffer supplemented with 1% BSA. A 10× stimulation mixture contained 5 μg/mL anti-Human IgM antibody (Sigma #12386) diluted in serum-free RPMI medium (CellGro #CV-10-040-CV). Compounds for testing were dissolved and serially diluted in 100% DMSO (total of 10 concentrations), and then diluted in serum-free RPMI to 5×final assay concentration.
Raji cells were subcultured in RPMI medium supplemented with 10% fetal bovine serum, 100 IU/mL penicillin, 100 μg/mL streptomycin, and 1×MEM non-essential amino acids. Sandwich ELISA plates were prepared by coating 96-well assay plates (Pierce #15042) with 100 μL/well capture antibody (Cell Signaling Technology #7142 or 7144) diluted in PBS. Plates were incubated overnight at 4° C., then washed with wash buffer, after which 200 μL/well blocking buffer was added to the plates and incubated at room temperature for at least 2 hrs. Raji cells were resuspended in serum-free RPMI medium and seeded into V-bottom, 2-mL 96-well blocks (Corning #3961) at 10^6 cells/well, then incubated for 2 hrs in a 37° C., 5% CO2 incubator. Compound treatment was performed by adding the 5× compound mixture to the cells and incubating for 2 hrs at 37° C., 5% CO2, after which the 10× stimulation mixture was added to the plates and incubated for 30 min at 37° C., 5% CO2. Cells were pelleted by centrifuging plates at 1500 RPM for 5 min at room temperature. Media was carefully removed and cells were lysed by adding 100 μL/well cell lysis buffer (Cell Signaling Technology #9803) supplemented with protease and phosphatase inhibitors (Thermo Fisher #78443). Plates were incubated on ice for 30 min, then the lysates (80 μL for pAKT^T308, 10 μL for total AKT) were transferred to prepared assay plates and incubated at 4° C. overnight. After washing plates with wash buffer, 100 μL/well detection antibody (Cell Signaling Technology #7142 or 7144) diluted in blocking buffer was added to the plates and incubated for 1 hr at 37° C. Plates were washed and 100 μL/well of HRP-conjugated secondary antibody (Cell Signaling Technology #7142 or 7144) diluted in blocking buffer was added to plates and incubated for 1 hr at room temperature. Plates were washed with wash buffer and 100 μL/well of luminescent substrate was added to plates. After 1 min on a plate shaker at medium speed, luminescence was read on a Wallac Victor2 plate reader. IC50 values were determined by curve fitting using a Collaborative Drug Discovery database (www.collaborativedrug.com).

SMILES | pIC50 (PI3K delta) | α/δ ratio (PI3K delta) | β/δ ratio (PI3K delta) | γ/δ ratio (PI3K delta) | pIC50 (mTOR) | pIC50 (PI3Kδ) | α/δ ratio (PI3Kδ) | β/δ ratio (PI3Kδ) | γ/δ ratio (PI3Kδ)
CC(C)(Cc1ccccc1F)Nc1nc(N2CCOCC2)nc(-n2c(C(F)F)nc3ccccc32)n1 [Compound A15, 4-(2-(difluoromethyl)-1H-benzo[d]imidazol-1-yl)-N-(1-(2-fluorophenyl)-2-methylpropan-2-yl)-6-morpholino-1,3,5-triazin-2-amine] | ≥ 7.00 | A’ | C’ | A’ | < 6.30 | ≥ 7.00 | A’ | C’ | A’
CC(C)(Cc1ccccc1Cl)Nc1nc(N2CCOCC2)nc(-n2c(C(F)F)nc3ccccc32)n1 [Compound A16, 4-(2-(difluoromethyl)-1H-benzo[d]imidazol-1-yl)-N-(1-(2-chlorophenyl)-2-methylpropan-2-yl)-6-morpholino-1,3,5-triazin-2-amine] | ≥ 7.00 | A’ | D’ | C’ | < 6.30 | ≥ 7.00 | A’ | A’ | A’
Cc1ccccc1CC(C)(C)Nc1nc(N2CCOCC2)nc(-n2c(C(F)F)nc3ccccc32)n1 [Compound A18, 4-(2-(difluoromethyl)-1H-benzo[d]imidazol-1-yl)-N-(2-methyl-1-(o-tolyl)propan-2-yl)-6-morpholino-1,3,5-triazin-2-amine] | ≥ 7.00 | A’ | D’ | B’ | < 6.30 | ≥ 7.00 | A’ | A’ | A’
CC(C)(Cc1cccc2ccccc12)Nc1nc(N2CCOCC2)nc(-n2c(C(F)F)nc3ccccc32)n1 [Compound A27, 4-(2-(difluoromethyl)-1H-benzo[d]imidazol-1-yl)-N-(2-methyl-1-(naphthalen-1-yl)propan-2-yl)-6-morpholino-1,3,5-triazin-2-amine] | ≥ 7.00 | A’ | D’ | D’ | < 6.30 | ≥ 7.00 |  | C’ | 
CC(C)(Cc1ccccc1-c1ccncc1)Nc1nc(N2CCOCC2)nc(-n2c(C(F)F)nc3ccccc32)n1 [Compound A33, 4-(2-(difluoromethyl)-1H-benzo[d]imidazol-1-yl)-N-(2-methyl-1-(2-(pyridin-4-yl)phenyl)propan-2-yl)-6-morpholino-1,3,5-triazin-2-amine] | ≥ 7.00 | A’ | D’ | A’ | < 6.30 | ≥ 7.00 |  | A’ | A’
CN1CCC(c2ccccc2CC(C)(C)Nc2nc(N3CCOCC3)nc(-n3c(C(F)F)nc4ccccc43)n2)CC1 [Compound A35, 4-(2-(difluoromethyl)-1H-benzo[d]imidazol-1-yl)-N-(2-methyl-1-(2-(1-methylpiperidin-4-yl)phenyl)propan-2-yl)-6-morpholino-1,3,5-triazin-2-amine] | ≥ 7.00 | A’ | A’ | A’ | < 6.30 | ≥ 7.00 | A’ | A’ | A’
CN1CCC(c2ccccc2CC(C)(C)Nc2nc(N3CCOCC3)nc(-n3c(C(F)F)nc4ccccc43)n2)C1 (stereo not shown) [Compound A75, 4-(2-(difluoromethyl)-1H-benzo[d]imidazol-1-yl)-N-(2-methyl-1-(2-(1-methylpyrrolidin-3-yl)phenyl)propan-2-yl)-6-morpholino-1,3,5-triazin-2-amine] |  |  |  |  |  | ≥ 7.00 | A’ | B’ | A’

Second part, the compound after the results:

pIC50 (PI3K delta) | α/δ ratio (PI3K delta) | β/δ ratio (PI3K delta) | γ/δ ratio (PI3K delta) | pIC50 (mTOR) | pIC50 (PI3Kδ) | α/δ ratio (PI3Kδ) | β/δ ratio (PI3Kδ) | γ/δ ratio (PI3Kδ) | SMILES
≥ 7.00 | A’ | D’ | A’ | < 6.30 | ≥ 7.00 | A’ | A’ | A’ | CC(C)(Cc1ccccc1)Nc1nc(N2CCOCC2)nc(-n2c(C(F)F)nc3ccccc32)n1 [Compound A14, 4-(2-(difluoromethyl)-1H-benzo[d]imidazol-1-yl)-N-(2-methyl-1-phenylpropan-2-yl)-6-morpholino-1,3,5-triazin-2-amine]
≥ 7.00 | B’ | B’ | B’ | < 6.30 | ≥ 7.00 |  | D’ |  | COc1ccccc1CC(C)(C)Nc1nc(N2CCOCC2)nc(-n2c(C(F)F)nc3ccccc32)n1 [Compound A19, 4-(2-(difluoromethyl)-1H-benzo[d]imidazol-1-yl)-N-(1-(2-methoxyphenyl)-2-methylpropan-2-yl)-6-morpholino-1,3,5-triazin-2-amine]
≥ 7.00 | A’ | B’ | A’ | < 6.30 | ≥ 7.00 | A’ | A’ | A’ | COc1cccc(CC(C)(C)Nc2nc(N3CCOCC3)nc(-n3c(C(F)F)nc4ccccc43)n2)c1 [Compound A21, 4-(2-(difluoromethyl)-1H-benzo[d]imidazol-1-yl)-N-(1-(3-methoxyphenyl)-2-methylpropan-2-yl)-6-morpholino-1,3,5-triazin-2-amine]
≥ 7.00 | A’ | C’ | A’ | < 6.30 | ≥ 7.00 | A’ | A’ | A’ | CC(C)(Cc1ccc(F)cc1)Nc1nc(N2CCOCC2)nc(-n2c(C(F)F)nc3ccccc32)n1 [Compound A22, 4-(2-(difluoromethyl)-1H-benzo[d]imidazol-1-yl)-N-(1-(4-fluorophenyl)-2-methylpropan-2-yl)-6-morpholino-1,3,5-triazin-2-amine]
≥ 7.00 | A’ | D’ | B’ | < 6.30 | ≥ 7.00 | A’ |  | A’ | CC(C)(Cc1cccc(F)c1)Nc1nc(N2CCOCC2)nc(-n2c(C(F)F)nc3ccccc32)n1 [Compound A39, 4-(2-(difluoromethyl)-1H-benzo[d]imidazol-1-yl)-N-(1-(3-fluorophenyl)-2-methylpropan-2-yl)-6-morpholino-1,3,5-triazin-2-amine]
